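Each compound was tested at five concentrations against cells in 96-well plates for 48 hours. TGI: total growth inhibition.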
Key:
Assay in all cases: inhibition of tumour cell growth, NCI panel, 48 h
[1] = tested on: 786-0 renal
[2] = tested on: A498 renal
[3] = tested on: A549 NSCLC
[4] = tested on: ACHN renal
[5] = tested on: CAKI-1 renal
[6] = tested on: CCRF-CEM leukemia
[7] = tested on: COLO 205 colon
[8] = tested on: DLD-1 colon
[9] = tested on: DMS 273 small cell lung
[10] = tested on: EKVX NSCLC
[11] = tested on: HCC-2998 colon
[12] = tested on: HCT-116 colon
[13] = tested on: HCT-15 colon
[14] = tested on: HL-60(TB) leukemia
[15] = tested on: HOP-18 NSCLC
[16] = tested on: HOP-62 NSCLC
[17] = tested on: HOP-92 NSCLC
[18] = tested on: HT29 colon
[19] = tested on: IGROV1 ovarian
[20] = tested on: K-562 leukemia
[21] = tested on: KM12 colon
[22] = tested on: KM20L2 colon
[23] = tested on: LOX IMVI melanoma
[24] = tested on: LXFL 529 NSCLC
[25] = tested on: M14 melanoma
[26] = tested on: M19-MEL melanoma
[27] = tested on: MALME-3M melanoma
[28] = tested on: MOLT-4 leukemia
[29] = tested on: NCI-H226 lung
[30] = tested on: NCI-H23 lung
[31] = tested on: NCI-H460 lung
[32] = tested on: NCI-H522 lung
[33] = tested on: OVCAR-3 ovarian
[34] = tested on: OVCAR-4 ovarian
[35] = tested on: OVCAR-5 ovarian
[36] = tested on: OVCAR-8 ovarian
[37] = tested on: RPMI-8226 leukemia
[38] = tested on: RXF 393 renal
[39] = tested on: SF-268 CNS
[40] = tested on: SF-295 CNS
[41] = tested on: SK-MEL-2 melanoma
[42] = tested on: SK-MEL-28 melanoma
[43] = tested on: SK-MEL-5 melanoma
[44] = tested on: SK-OV-3 ovarian
[45] = tested on: SN12C renal
[46] = tested on: SNB-19 CNS
[47] = tested on: SNB-75 CNS
[48] = tested on: SNB-78 CNS
[49] = tested on: SR leukemia
[50] = tested on: SW-620 colon
[51] = tested on: TK-10 renal
[52] = tested on: U251 CNS
[53] = tested on: UACC-257 melanoma
[54] = tested on: UACC-62 melanoma
[55] = tested on: UO-31 renal
[56] = tested on: DMS 114 small cell lung
[57] = tested on: SF-539 CNS
[58] = tested on: XF 498 CNS

CCOC(=O)C1(c2ccccc2)CCCNCC1 (configuration not stated)
TGI [1]: > 100 µM
TGI [2]: > 100 µM
TGI [3]: > 100 µM
TGI [4]: > 100 µM
TGI [5]: > 100 µM
TGI [6]: > 100 µM
TGI [7]: > 100 µM
TGI [8]: > 100 µM
TGI [9]: > 100 µM
TGI [10]: > 100 µM
TGI [11]: > 100 µM
TGI [12]: > 100 µM
TGI [13]: > 100 µM
TGI [14]: > 100 µM
TGI [15]: > 100 µM
TGI [16]: > 100 µM
TGI [17]: > 100 µM
TGI [18]: > 100 µM
TGI [19]: > 100 µM
TGI [20]: > 100 µM
TGI [21]: > 100 µM
TGI [22]: > 100 µM
TGI [23]: > 100 µM
TGI [24]: > 100 µM
TGI [25]: > 100 µM
TGI [26]: > 100 µM
TGI [27]: > 100 µM
TGI [28]: > 100 µM
TGI [29]: > 100 µM
TGI [30]: > 100 µM
TGI [31]: > 100 µM
TGI [32]: > 100 µM
TGI [33]: > 100 µM
TGI [34]: > 100 µM
TGI [35]: > 100 µM
TGI [36]: > 100 µM
TGI [37]: > 100 µM
TGI [38]: > 100 µM
TGI [39]: > 100 µM
TGI [40]: > 100 µM
TGI [41]: > 100 µM
TGI [42]: > 100 µM
TGI [43]: > 100 µM
TGI [44]: > 100 µM
TGI [45]: > 100 µM
TGI [46]: > 100 µM
TGI [47]: > 100 µM
TGI [48]: > 100 µM
TGI [49]: 88.8 µM
TGI [50]: > 100 µM
TGI [51]: > 100 µM
TGI [52]: > 100 µM
TGI [53]: > 100 µM
TGI [54]: > 100 µM
TGI [55]: > 100 µM

C=CCOC(C)n1c(C)c(Br)c(=O)[nH]c1=O (configuration not stated)
TGI [1]: > 100 µM
TGI [2]: > 100 µM
TGI [3]: > 100 µM
TGI [4]: > 100 µM
TGI [5]: > 100 µM
TGI [6]: > 100 µM
TGI [7]: > 100 µM
TGI [8]: > 100 µM
TGI [56]: > 100 µM
TGI [9]: > 100 µM
TGI [10]: > 100 µM
TGI [11]: > 100 µM
TGI [12]: > 100 µM
TGI [13]: > 100 µM
TGI [14]: > 100 µM
TGI [17]: > 100 µM
TGI [18]: > 100 µM
TGI [19]: > 100 µM
TGI [21]: > 100 µM
TGI [22]: > 100 µM
TGI [23]: > 100 µM
TGI [24]: > 100 µM
TGI [26]: > 100 µM
TGI [27]: > 100 µM
TGI [28]: > 100 µM
TGI [29]: > 100 µM
TGI [30]: > 100 µM
TGI [31]: > 100 µM
TGI [32]: > 100 µM
TGI [33]: > 100 µM
TGI [35]: > 100 µM
TGI [36]: > 100 µM
TGI [38]: > 100 µM
TGI [39]: > 100 µM
TGI [40]: > 100 µM
TGI [57]: > 100 µM
TGI [41]: > 100 µM
TGI [42]: > 100 µM
TGI [43]: > 100 µM
TGI [44]: > 100 µM
TGI [45]: > 100 µM
TGI [46]: > 100 µM
TGI [47]: > 100 µM
TGI [49]: > 100 µM
TGI [50]: > 100 µM
TGI [51]: > 100 µM
TGI [52]: > 100 µM
TGI [53]: > 100 µM
TGI [54]: > 100 µM
TGI [55]: > 100 µM
TGI [58]: > 100 µM

O=C1[C@H]2ON(c3ccccc3)C(c3ccc(Cl)cc3Cl)[C@H]2C(=O)N1c1ccc(Cc2ccc(N3C(=O)[C@@H]4ON(c5ccccc5)C(c5ccc(Cl)cc5Cl)[C@@H]4C3=O)cc2)cc1 (some centres not stated)
TGI [1]: > 100 µM
TGI [2]: > 100 µM
TGI [3]: > 100 µM
TGI [4]: > 100 µM
TGI [5]: > 100 µM
TGI [6]: > 100 µM
TGI [7]: > 100 µM
TGI [8]: > 100 µM
TGI [56]: > 100 µM
TGI [9]: > 100 µM
TGI [10]: > 100 µM
TGI [11]: > 100 µM
TGI [12]: > 100 µM
TGI [13]: > 100 µM
TGI [14]: > 100 µM
TGI [15]: > 100 µM
TGI [16]: > 100 µM
TGI [17]: > 100 µM
TGI [18]: > 100 µM
TGI [19]: > 100 µM
TGI [20]: > 100 µM
TGI [21]: > 100 µM
TGI [22]: > 100 µM
TGI [23]: > 100 µM
TGI [24]: > 100 µM
TGI [25]: 69 µM
TGI [26]: > 100 µM
TGI [27]: > 100 µM
TGI [28]: > 100 µM
TGI [29]: > 100 µM
TGI [30]: > 100 µM
TGI [31]: > 100 µM
TGI [32]: > 100 µM
TGI [33]: > 100 µM
TGI [34]: > 100 µM
TGI [35]: > 100 µM
TGI [36]: > 100 µM
TGI [37]: > 100 µM
TGI [39]: > 100 µM
TGI [40]: > 100 µM
TGI [57]: > 100 µM
TGI [41]: > 100 µM
TGI [42]: > 100 µM
TGI [43]: > 100 µM
TGI [44]: > 100 µM
TGI [45]: > 100 µM
TGI [46]: > 100 µM
TGI [47]: > 100 µM
TGI [48]: > 100 µM
TGI [49]: > 100 µM
TGI [50]: > 100 µM
TGI [51]: > 100 µM
TGI [52]: > 100 µM
TGI [53]: > 100 µM
TGI [54]: > 100 µM
TGI [55]: > 100 µM
